Measurements reported in publication PMC9387325, “New quinoline and isatin derivatives as apoptotic VEGFR-2 inhibitors: design, synthesis, anti-proliferative activity, docking, ADMET, toxicity, and MD simulation studies” (Journal of Enzyme Inhibition and Medicinal Chemistry, 2022).

How the values were obtained:
[1] = tested on: A549; assay: In vitro anti-proliferative activity (MTT assay); assay type: cell-based, human; conditions: for IC50: Homo sapiens, A549, mean of three replicates; for Selectivity index A549: IC50 on normal (Vero) cells / IC50 on A549
Protocol: (§1) Anti-proliferative activities were assessed using the MTT assay[31]^,[46] and were explained intensely in Supplementary data. […]
(§2) a- Mammalian cell lines culture
(§3) Lung carcinoma epithelial (A549), colon cancer (Caco-2)cell lines were cultured on DMEM media, […]
(§4) RBMI media. The cultured media were supplement ed with 200 mM L-glutamine, 10.0% fetal bovine serum (Lonza), and 1.0% penicillin/streptomycin. Cells were seeded into 25.0 cm tissue culture flasks and incubated at 37 ◦C in a 5.0% CO2 incubator for 24 h or till confluency.
(§5) The safety profiles of the tested compounds were checked on one non-cancerous cell line (Vero) to […]
(§6) of 100.0 µl of 6×10^4 cell/ml cells was seeded in to each well of a 96-well plate and then the plates were incubated at 37 °C in a humidified 5.0% CO2 incubator for 24 h. At the end of incubation period, the exhausted medium was replaced with 100.0 µl of different concentrations of the designated treatment (prepared in RPMI medium starting from 1.0 mM). The inoculated plates were incubated at the same growth conditions for another 24 h. At the end of incubation, cellular viability was assessed using MTS assay kit (Promega) according to the manual instruction. c- In-vitro anticancer activity
(§7) Anticancer activities of the tested compounds against lung carcinoma epithelial (A549), colon cancer […]
(§8) quantified using MTS assay kit (Promega) as described by the Manufacturer. d- Selectivity index (SI)
(§9) The selectivity index values of the tested compounds on cancer cells were calculated as described by Koch et al., with slight modifications; SI=IC50nc/IC50cc, where IC50nc: the IC50 value of the tested compound on normal cells and IC 50cc: IC50 of the tested compound on cancer cell line . […]

[2] = tested on: HepG2; assay: In vitro anti-proliferative activity (MTT assay); assay type: cell-based, human; conditions: for IC50: Homo sapiens, HepG2, HepG-2, mean of three replicates; for Selectivity index HepG2: IC50 on normal (Vero) cells / IC50 on HepG2
Protocol: as §1, §2, §3, §4, §5, §6, §7, §8, §9

[3] = tested on: MDA-MB-231; assay: In vitro anti-proliferative activity (MTT assay); assay type: cell-based, human; conditions: for IC50: Homo sapiens, MDA-MB-231, MDA-MB231, mean of three replicates; for Selectivity index MDA-MB231: IC50 on normal (Vero) cells / IC50 on MDA-MB231
Protocol: as §1, §2, §3, §4, §5, §6, §7, §8, §9

[4] = In vitro anti-proliferative activity (MTT assay); assay type: cell-based, human; conditions: African green monkey (Vero) / human (Caco-2); IC50 on normal (Vero) cells / IC50 on Caco-2; read-out: Selectivity index Caco-2
Protocol: (§10) To assess the antiproliferative effects of the targeted candidates, an MTT assay[29–31] was performed against four cancer cell lines: lung carcinoma epithelial (A549), colon cancer (Caco-2), hepatocellular cancer (HepG2), and breast cancer (MDA-MB-231).
as §1, §2
(§11) Lung carcinoma epithelial (A549), colon cancer (Caco-2)cell lines were cultured on DMEM media, meanwhile hepatocellular cancer (HepG2), and breast cancer (MDA-MB-231) cell lines were cultured on RBMI media. The cultured media were supplement ed with 200 mM L-glutamine, 10.0% fetal bovine serum (Lonza), and 1.0% penicillin/streptomycin. Cells were seeded into 25.0 cm tissue culture flasks and incubated at 37 ◦C in a 5.0% CO2 incubator for 24 h or till confluency.
as §5, §6
(§12) Anticancer activities of the tested compounds against lung carcinoma epithelial (A549), colon cancer (Caco-2), hepatocellular cancer (HepG2), and breast cancer (MDA-MB-231) cell lines were quantified using MTS assay kit (Promega) as described by the Manufacturer. d- Selectivity index (SI)
as §9

[5] = tested on: Caco-2; assay: In vitro anti-proliferative activity (MTT assay); assay type: cell-based, human; conditions: for IC50: Homo sapiens, Caco-2, mean of three replicates
Protocol: as §10, §1, §2, §11, §5, §6, §12, §9

[6] = target: T1, VEGFR-2 (Homo sapiens, UniProt P35968); assay: In vitro VEGFR-2 kinase assay (VEGFR-2 ELISA kit); assay type: biochemical; conditions: for HillSlope (best-fit value), VEGFR-2 inhibition / LogIC50 (best-fit value), VEGFR-2 inhibition: dose-response fit, supplement; for IC50: mean of three replicates, read-out: VEGFR-2 inhibitory activity IC50
T1 construct: purchased
T1 sequence (P35968 20-1356): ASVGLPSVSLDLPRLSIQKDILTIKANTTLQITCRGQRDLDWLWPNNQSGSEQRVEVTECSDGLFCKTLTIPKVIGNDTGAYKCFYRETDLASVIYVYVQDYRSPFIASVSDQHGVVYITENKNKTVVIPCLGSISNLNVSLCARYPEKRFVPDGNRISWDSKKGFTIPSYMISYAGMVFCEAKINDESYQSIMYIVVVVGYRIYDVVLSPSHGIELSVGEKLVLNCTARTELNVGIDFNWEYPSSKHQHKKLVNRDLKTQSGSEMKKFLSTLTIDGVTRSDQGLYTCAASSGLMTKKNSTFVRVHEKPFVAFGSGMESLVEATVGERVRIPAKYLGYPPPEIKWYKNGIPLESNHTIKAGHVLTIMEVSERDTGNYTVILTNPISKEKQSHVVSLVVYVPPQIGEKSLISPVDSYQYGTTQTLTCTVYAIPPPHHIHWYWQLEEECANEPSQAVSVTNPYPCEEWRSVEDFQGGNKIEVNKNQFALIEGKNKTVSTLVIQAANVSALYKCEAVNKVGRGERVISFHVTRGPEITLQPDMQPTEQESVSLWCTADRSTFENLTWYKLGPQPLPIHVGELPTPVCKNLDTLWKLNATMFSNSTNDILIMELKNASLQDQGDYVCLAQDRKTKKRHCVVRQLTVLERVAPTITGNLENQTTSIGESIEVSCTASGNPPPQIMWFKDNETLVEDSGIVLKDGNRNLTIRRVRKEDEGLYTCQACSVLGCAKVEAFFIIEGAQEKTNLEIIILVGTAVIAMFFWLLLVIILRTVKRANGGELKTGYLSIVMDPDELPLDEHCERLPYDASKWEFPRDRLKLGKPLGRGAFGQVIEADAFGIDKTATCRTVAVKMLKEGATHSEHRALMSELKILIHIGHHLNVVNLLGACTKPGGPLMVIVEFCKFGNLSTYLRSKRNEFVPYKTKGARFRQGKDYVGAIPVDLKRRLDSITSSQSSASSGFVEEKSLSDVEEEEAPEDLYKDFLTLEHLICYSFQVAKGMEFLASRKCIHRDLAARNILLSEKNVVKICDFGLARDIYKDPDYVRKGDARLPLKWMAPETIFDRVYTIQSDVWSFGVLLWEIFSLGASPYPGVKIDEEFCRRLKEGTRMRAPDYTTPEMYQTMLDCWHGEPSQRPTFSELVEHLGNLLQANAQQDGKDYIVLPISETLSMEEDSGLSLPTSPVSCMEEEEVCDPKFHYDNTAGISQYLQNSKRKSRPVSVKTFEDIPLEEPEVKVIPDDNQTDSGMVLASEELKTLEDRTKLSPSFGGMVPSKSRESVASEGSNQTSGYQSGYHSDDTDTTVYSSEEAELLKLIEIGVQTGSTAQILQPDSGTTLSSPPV
Protocol: As the main target in this work is the design and synthesis of promising VEGFR-2 inhibitors, we subjected the synthesised compounds to in vitro VEGFR-2 inhibitory assay to assess the ability of these compounds to obstacle the kinase activity of VEGFR-2.
Was tested using a VEGFR-2 ELISA kit and was explained intensely in Supplementary data[47].

[7] = Cytotoxicity against normal cells (safety assay); assay type: cell-based; conditions: African green monkey, Vero cells (non-cancerous cell line)
Protocol: The cytotoxic activities of the synthesised against normal cells were evaluated against the Vero cell line utilising an MTT assay.
The safety profiles were examined on Vero cells (non-cancerous cell line) and was explained intensely in Supplementary data[48]. […]
a- Mammalian cell lines culture […]
as §4, §5
of 100.0 µl of 6×10^4 cell/ml cells was seeded in to each well of a 96-well plate and then the plates were incubated at 37 °C in a humidified 5.0% CO2 incubator for 24 h. At the end of incubation period, the exhausted medium was replaced with 100.0 µl of different concentrations of the designated treatment (prepared in RPMI medium starting from 1.0 mM). The inoculated plates were incubated at the same growth conditions for another 24 h. At the end of incubation, cellular viability was assessed using MTS assay kit (Promega) according to the manual instruction. […]

[8] = tested on: Caco-2 cells; assay: Wound healing assay (migration assay); assay type: cell-based, human
Protocol: In this test, Caco-2 cells were allowed to grow then, a wound was formed on the cell layer. Next, the cells were incubated with the sub IC50 dose of compound 7. The results of wound healing were compared to the untreated cell line. Figure 4 illustrates the degree of wound healing caused by compound 7 compared to the control cells.
Was performed as the described protocol[50] and was explained intensely in Supplementary data. […]
as §2
Lung carcinoma epithelial (A549), colon cancer (Caco-2)cell lines were cultured on DMEM media, meanwhile hepatocellular cancer (HepG2), and breast cancer (MDA-MB-231) cell lines were cultured on RBMI media. […]
of 100.0 µl of 6×10^4 cell/ml cells was seeded in to each well of a 96-well plate and then the plates were incubated at 37 °C in a humidified 5.0% CO2 incubator for 24 h. […] At the end of incubation, cellular viability was assessed using MTS assay kit (Promega) according to the manual instruction. c- In-vitro anticancer activity
Anticancer activities of the tested compounds against lung carcinoma epithelial (A549), colon cancer (Caco-2), hepatocellular cancer (HepG2), and breast cancer (MDA-MB-231) cell lines were quantified using MTS assay kit (Promega) as described by the Manufacturer. d- Selectivity index (SI) […]

[9] = tested on: Bcl-xl; assay: RT-qPCR gene expression in Caco-2 cells; assay type: cell-based, human; conditions: Caco-2, 90 µM, 24 h
Protocol: (§13) RT-qPCR technique was applied to assess the expression levels of Bcl2, Bcl-xl, Survivin, and TGF in Caco-2 cells after treatment with compound 7 for 24 h. […] On the other hand, such a compound produced an upregulation effect of the TGF gene.
(§14) Bcl2, Bcl-xl, TGF and Survivin genes levels were evaluated as reported[51] and was explained intensely in Supplementary data. […]
(§15) f- Gene expression pattern alternation of cancer cell after treatment with compound 7.
(§16) The molecular anticancer mode of action of 7 was investigated by screening their ability to affect the gene expression levels of Bcl2, Bcl-xl, TGF and Survivin genes using specific forward and reverse primers and RTq-PCR technique (Table 1) in CaCo-2 cells (chosen as the most sensitive cancer cell line). After cellular treatment, CaCo-2 cell line was cultured into 12 well plates (6×10^3 cell/ml) for 24 h. with the sub -IC50 concentration of 7. After treatment, total RNA extraction was performed using RNA extraction kit (Qiagen, Germany). Then, 1 ug of the obtained RNA was used to synthesiz cDNA using cDNA synthesis kit (Promega Corp., Madison, WI) as recommended by the manufacturer . Simultaneously, GAPDH forward and reverse primers (Table 1) were used to amplify the house keeping gene as internal control for standardization of PCR products. The RTq -PCR was done using SYBR Green dye (QuantiTect SYBR Green PCR Kits) and Light Cycler fluorimeter (Bio-RAD S1000 Tm thermal cycler). The PCR cycling program was as follows: 95 °C for 2 min, followed by 40 cycles of 95 °C for 30s, 55 °C for 30 s, and 60 °C for 45s, and finally 60 °C for 5 min. […]

[10] = tested on: Bcl2; assay: RT-qPCR gene expression in Caco-2 cells; assay type: cell-based, human; conditions: Caco-2, 90 µM, 24 h
Protocol: as §13, §14, §15, §16

[11] = tested on: Survivin; assay: RT-qPCR gene expression in Caco-2 cells; assay type: cell-based, human; conditions: Caco-2, 90 µM, 24 h
Protocol: as §13, §14, §15, §16

[12] = tested on: TGF; assay: RT-qPCR gene expression in Caco-2 cells; assay type: cell-based, human; conditions: Caco-2, 90 µM, 24 h
Protocol: as §13, §14, §15, §16

[13] = tested on: Caco-2 cells; assay: Flow cytometric cell cycle analysis; assay type: cell-based, human; conditions: Caco-2, 90 µM, 24 h
Description: Employing the flowcytometry technique, the cell cycle pattern of the untrated Caco-2 cancer cells (Figure 6(A)) was compared with that of the treated cells with compound 7.

SMILES | IC50 [1] [µM] | Selectivity index A549 [1] | IC50 [2] [µM] | Selectivity index HepG2 [2] | IC50 [3] [µM] | Selectivity index MDA-MB231 [3] | selectivity ratio [4] | IC50 [5] [µM] | HillSlope (best-fit value), VEGFR-2 inhibition [6] | LogIC50 (best-fit value), VEGFR-2 inhibition [6] | IC50 at 24 h [7] [µM] | IC50 [6] [µM] | further results
COc1ccc2[nH]c(=O)c(/C=C3\SC(=O)N(CC(=O)Nc4ccccc4)C3=O)cc2c1 [Compound 7, (Z)-2–(5-((6-Methoxy-2-oxo-1,2-dihydroquinolin-3-yl)methylene)-2,4-dioxothiazolidin-3-yl)-N-phenylacetamide] | 159 ± 14 | 2.77 | 150 ± 7.07 | 2.93 | 122 ± 7.01 | 3.59 | 4.71 | 93.5 ± 0.71 | -0.4960 | 2.138 Log (nM) | 440 ± 14.1 | – | diameter of the wound, treated cells (Figure 4A) ([8]; Caco-2, 90 µM, time not stated): 0.3058 mm; effect on wound healing ([8]; Caco-2, sub IC50 dose (90 µM)): prevent wound healing; Relative expression of Bcl-xl gene [9]: down-regulating; Relative expression of Bcl2 gene [10]: down-regulating; Relative expression of Survivin gene [11]: down-regulating; Relative expression of TGF gene [12]: upregulation; cell cycle arrest [13]: cellular arrest in sub G0 (Apoptotic phase); cell population in S phase ([13]; untreated 24.7%): 13.1%; cell population in G0/G1 phase ([13]; untreated 51.7%): 46.4%
COc1ccc(NC(=O)CN2C(=O)S/C(=C\c3cc4cc(OC)ccc4[nH]c3=O)C2=O)cc1 [Compound 8, (Z)-2–(5-((6-Methoxy-2-oxo-1,2-dihydroquinolin-3-yl)methylene)-2,4-dioxothiazolidin-3-yl)-N-(4-methoxyphenyl)acetamide] | 196 ± 70 | 0.77 | 134 ± 1.41 | 1.12 | 130 ± 5.6 | 1.15 | 0.79 | 190 ± 9.11 | -0.3463 | 2.272 Log (nM) | 150 ± 14.1 | 0.187 | –
COc1ccc2[nH]c(=O)c(/C=C3\SC(=O)N(CC(=O)Nc4ccccc4C)C3=O)cc2c1 [Compound 9, (Z)-2–(5-((6-Methoxy-2-oxo-1,2-dihydroquinolin-3-yl)methylene)-2,4-dioxothiazolidin-3-yl)-N-(o-tolyl)acetamide] | 51 ± 4.2 | 3.84 | 145 ± 3.5 | 1.35 | 188 ± 7.01 | 1.04 | 1.17 | 167 ± 4.2 | -0.5262 | 1.994 Log (nM) | 196 ± 2.8 | 0.0985 | times as active as sorafenib ([6]; VEGFR-2 inhibition): 0.54 times
COc1ccc(NC(=O)CN2C(=O)S/C(=C3\C(=O)Nc4ccccc43)C2=O)cc1 [Compound 14] | 54 ± 1.4 | – | 149 ± 7.01 | – | 9 ± 0.51 | – | – | 5.7 ± 0.07 | – | – | 30 ± 1.35 | 0.0859 | times as active as doxorubicin ([5]; Caco-2 cells): 1.44 times
COc1cccc2c1C(=O)c1c(O)c3c(c(O)c1C2=O)C[C@@](O)(C(=O)CO)C[C@@H]3O[C@H]1C[C@H](N)[C@H](O)[C@H](C)O1 [Doxorubicin, reference compound] | 7 ± 0.22 | 3.57 | 2.8 ± 0.07 | 8.93 | 9 ± 0.77 | 2.78 | 3.05 | 8.2 ± 0.21 | – | – | 25 ± 1.41 | – | –
